From paper PMC5823565, “Targeting ovarian cancer and endothelium with an allosteric PTP4A3 phosphatase inhibitor” (Oncotarget, 2017) come the findings set out here.

“Also recorded” adds a separate entry of the source.

In one experiment the test system is SKOV3. The experiment can be described thus: 2D monolayer viability assay (CellTiter Blue). The experiment is classed as cell-based. As to conditions: Homo sapiens, SK-OV-3; 48 h, Mean ± SD, N=3.
Another experiment concerns IMR90 fibroblasts. The experiment can be described thus: 2D monolayer viability assay (CellTiter Blue). Format: cell-based. As to conditions: Homo sapiens, IMR-90; 48 h, N=3.
Another experiment deals with A2780. The experiment can be described thus: 2D monolayer viability assay (CellTiter Blue). As to conditions: Homo sapiens, A2780; 48 h, Mean ± SD, N=3; read-out: Monolayer (IC50 µM) A2780. The experiment is classed as cell-based.
Another experiment deals with SKOV3IP1. The experiment can be described thus: 2D monolayer viability assay (CellTiter Blue). The experiment is classed as cell-based. As to conditions: Homo sapiens; 48 h, Mean ± SD, N=3.
The subject of a further experiment is HEYA8. Put plainly: 2D monolayer viability assay (CellTiter Blue). The experiment is classed as cell-based. As to conditions: Homo sapiens, HEY A8; 48 h, Mean ± SD, N=3.
For another experiment, the system named is OVCAR4. Put plainly: 2D monolayer viability assay (CellTiter Blue). As to conditions: Homo sapiens, OVCAR-4; 48 h, Mean ± SD, N=3. Format: cell-based.
Another experiment deals with SKOV3TRIP2. The experiment can be described thus: 2D monolayer viability assay (CellTiter Blue). The experiment is classed as cell-based. As to conditions: Homo sapiens; 48 h, Mean ± SD, N=3.
The next experiment relates to A2780CP20. Put plainly: 2D monolayer viability assay (CellTiter Blue). The experiment is classed as cell-based. As to conditions: Homo sapiens; 48 h, Mean ± SD, N=3.
The next experiment relates to HEYA8-MDR. The experiment can be described thus: 2D monolayer viability assay (CellTiter Blue). The experiment is classed as cell-based. As to conditions: Homo sapiens, 48 h, Mean ± SD, N=3.
In another experiment the test system is OvCa cell line spheroids. The experiment can be described thus: Spheroid viability assay, across the panel. Format: cell-based. As to conditions: Homo sapiens; 48 h exposure; read-out: no effects on spheroids in any cell lines at concentrations up to.
Experiment [1] concerns the target T1, PTP4A3 protein (Homo sapiens, UniProt O75365). Put plainly: Thermal shift assay with SYPRO orange. Further details: made in house. Format: binding. As to conditions: 100 µM compound, 16 μM protein.
The next experiment has as its system OVCAR4 spheroids. The experiment can be described thus: Spheroid viability assay (CellTiterGlo 3D). The experiment is classed as cell-based. As to conditions: Homo sapiens, OVCAR-4; 48 h, Mean ± SD, N=3.
Another experiment concerns SKOV3TRIP2 spheroids. Put plainly: Spheroid viability assay (CellTiterGlo 3D). Format: cell-based. As to conditions: Homo sapiens; 48 h, Mean ± SD, N=3.
The subject of another experiment is A2780 spheroids. Put plainly: Spheroid viability assay (CellTiterGlo 3D). Format: cell-based. As to conditions: Homo sapiens, 48 h, Mean ± SD, N=3.
The test system of another experiment is COV362 spheroids. Put plainly: Spheroid viability assay (CellTiterGlo 3D). As to conditions: Homo sapiens, 48 h, Mean ± SD, N=3. The experiment is classed as cell-based.
Experiment [2] deals with normal human ovarian HI0-180 epithelial cells. The experiment can be described thus: Spheroid viability assay (CellTiterGlo 3D). As to conditions: Epithelial cell, 48 h. Format: cell-based.
A further experiment deals with SKOV3 spheroids. The experiment can be described thus: Spheroid viability assay (CellTiterGlo 3D). As to conditions: Homo sapiens, SK-OV-3; 48 h, Mean ± SD, N=3. Format: cell-based.
A further experiment has as its system A2780CP20 spheroids. Put plainly: Spheroid viability assay (CellTiterGlo 3D). The experiment is classed as cell-based. As to conditions: Homo sapiens; 48 h, Mean ± SD, N=3.
For the next experiment, the system named is SKOV3IP1 spheroids. The experiment can be described thus: Spheroid viability assay (CellTiterGlo 3D). The experiment is classed as cell-based. As to conditions: Homo sapiens; 48 h, Mean ± SD, N=3.
Another experiment concerns HeyA8-MDR spheroids. The experiment can be described thus: Spheroid viability assay (CellTiterGlo 3D). The experiment is classed as cell-based. As to conditions: Homo sapiens, 48 h, Mean ± SD, N=3.
Experiment [3] addresses T1, PTP4A3 protein. The experiment can be described thus: PTP4A3 phosphatase activity assay with DiFMUP substrate. The experiment is classed as biochemical. More on the design: using a full-length recombinant human PTP4A3 and DiFMUP as the substrate; His6; made in house. As to conditions: full-length recombinant human PTP4A3, DiFMUP substrate; read-out: PTP4A3 inhibition, inactive at concentrations as high as.

The test system of a further experiment is OvCa cell lines. The experiment can be described thus: 2D monolayer viability assay, across the panel. The experiment is classed as cell-based, human. As to conditions: Homo sapiens, 48 h, read-out: no significant growth inhibition of any of the OvCa cell lines at concentrations as high as.
For another experiment, the system named is HeyA8 spheroids. The experiment can be described thus: Spheroid viability and growth assay. The experiment is classed as cell-based, human.
For experiment [4], the system named is RhoA activation in HeyA8 cells. Put plainly: RhoA G-LISA activation assay. Format: cell-based, human. As to conditions: HeyA8, 1 µM.
For another experiment, the system named is HeyA8 cells. The experiment can be described thus: Scratch wound migration assay. Format: cell-based, human. As to conditions: measured 14 h after scratch.
A further experiment has as its target PTPRB (PTPβ) (Homo sapiens, UniProt P23467). Put plainly: Phosphatase specificity profiling (PhosphataseProfiler). Format: biochemical. As to conditions: 10 µM DiFMUP, commercial vendor, N=2, read-out: % Activity (Mean ± SD) PTPRB (PTPβ).
Another experiment concerns the target LMPTP-B (Homo sapiens, UniProt P24666). Described as above. Format: biochemical. As to conditions: 10 µM DiFMUP, commercial vendor, N=2, read-out: % Activity (Mean ± SD) LMPTP-B.
Another experiment has as its target PTPN7 (HePTP) (Homo sapiens, UniProt P35236). Described as above. Format: biochemical. As to conditions: 10 µM DiFMUP, commercial vendor, N=2, read-out: % Activity (Mean ± SD) PTPN7 (HePTP).
The target of a further experiment is T2, Lambda PP (Phage) (Escherichia phage lambda, UniProt P03772).
T2 construct: purchased Eurofins (Dundee, Scotland, UK), PhosphataseProfiler
The description is as above. Format: biochemical. As to conditions: 10 µM DiFMUP, commercial vendor, N=2, read-out: % Activity (Mean ± SD) Lambda PP (Phage).

The target of the next experiment is DUSP13 (TMDP) (Homo sapiens, UniProt Q9UII6). The experiment is described as above. Format: biochemical. As to conditions: 10 µM DiFMUP, commercial vendor, N=2, read-out: % Activity (Mean ± SD) DUSP13 (TMDP).
Experiment [5] deals with primary human lung microvascular endothelial cells (MVEC). Put plainly: Endothelial barrier function (TEER, ECIS) after LPS challenge. Format: cell-based.
Experiment [6] relates to Rac1 activation in human MVEC. Put plainly: Rac1 activation assay in MVEC after LPS. As to conditions: 5 µM pretreatment 24 h, LPS 0.5 EU/mL 1 h. The experiment is classed as cell-based.
The next experiment addresses T3, p38α (Homo sapiens, UniProt Q16539).
T3 construct: purchased Luceome Biotechnologies (Tucson, AZ), KinaseSeeker
Put plainly: Kinase profiling (KinaseSeeker). The experiment is classed as biochemical. As to conditions: 1 µM screening concentration.

The test system of experiment [7] is RhoA activation in human MVEC. Put plainly: RhoA activation pull-down assay in MVEC after LPS. The experiment is classed as cell-based. As to conditions: 5 µM pretreatment 24 h, LPS 0.5 EU/mL 1 h.
The target of a further experiment is PTP4A1 (Homo sapiens, UniProt Q93096). Put plainly: PTP4A1 phosphatase activity assay with DiFMUP. Format: biochemical. As to conditions: DiFMUP substrate.
The subject of experiment [8] is primary human lung microvascular endothelial cells (MVEC). Put plainly: Endothelial barrier function (TEER, ECIS) after VEGF challenge. Format: cell-based. As to conditions: 5 µM.

T1 sequence (O75365 whole entry): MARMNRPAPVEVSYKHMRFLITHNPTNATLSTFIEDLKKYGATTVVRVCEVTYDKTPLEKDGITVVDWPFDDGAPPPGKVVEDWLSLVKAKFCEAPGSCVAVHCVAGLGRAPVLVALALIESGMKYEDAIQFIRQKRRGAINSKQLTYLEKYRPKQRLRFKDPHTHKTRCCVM
PTP4A1, sequence (Q93096 whole entry): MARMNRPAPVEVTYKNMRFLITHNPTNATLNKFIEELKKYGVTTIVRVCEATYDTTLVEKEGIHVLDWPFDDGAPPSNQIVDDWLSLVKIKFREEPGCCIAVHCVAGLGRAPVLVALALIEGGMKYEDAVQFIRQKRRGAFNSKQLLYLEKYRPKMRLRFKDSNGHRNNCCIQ
T2 sequence (P03772 whole entry): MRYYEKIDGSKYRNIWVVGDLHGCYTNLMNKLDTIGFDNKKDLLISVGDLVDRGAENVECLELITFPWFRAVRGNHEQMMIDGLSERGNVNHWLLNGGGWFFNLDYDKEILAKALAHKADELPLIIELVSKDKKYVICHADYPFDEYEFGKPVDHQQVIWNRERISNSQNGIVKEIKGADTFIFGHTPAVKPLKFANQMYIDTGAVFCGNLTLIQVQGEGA
PTPN7 (HePTP), sequence (P35236 whole entry): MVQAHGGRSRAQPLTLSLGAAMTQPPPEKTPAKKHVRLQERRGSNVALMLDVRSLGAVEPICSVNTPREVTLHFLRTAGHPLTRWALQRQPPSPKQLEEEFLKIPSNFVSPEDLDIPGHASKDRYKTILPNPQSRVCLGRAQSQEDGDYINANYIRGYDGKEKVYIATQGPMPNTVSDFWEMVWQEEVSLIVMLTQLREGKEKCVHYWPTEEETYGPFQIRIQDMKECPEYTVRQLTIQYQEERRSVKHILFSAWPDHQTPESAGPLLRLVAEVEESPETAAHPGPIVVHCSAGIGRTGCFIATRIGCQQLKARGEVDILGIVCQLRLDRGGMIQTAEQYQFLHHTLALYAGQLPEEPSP
PTPRB (PTPβ), sequence (P23467 23-1997): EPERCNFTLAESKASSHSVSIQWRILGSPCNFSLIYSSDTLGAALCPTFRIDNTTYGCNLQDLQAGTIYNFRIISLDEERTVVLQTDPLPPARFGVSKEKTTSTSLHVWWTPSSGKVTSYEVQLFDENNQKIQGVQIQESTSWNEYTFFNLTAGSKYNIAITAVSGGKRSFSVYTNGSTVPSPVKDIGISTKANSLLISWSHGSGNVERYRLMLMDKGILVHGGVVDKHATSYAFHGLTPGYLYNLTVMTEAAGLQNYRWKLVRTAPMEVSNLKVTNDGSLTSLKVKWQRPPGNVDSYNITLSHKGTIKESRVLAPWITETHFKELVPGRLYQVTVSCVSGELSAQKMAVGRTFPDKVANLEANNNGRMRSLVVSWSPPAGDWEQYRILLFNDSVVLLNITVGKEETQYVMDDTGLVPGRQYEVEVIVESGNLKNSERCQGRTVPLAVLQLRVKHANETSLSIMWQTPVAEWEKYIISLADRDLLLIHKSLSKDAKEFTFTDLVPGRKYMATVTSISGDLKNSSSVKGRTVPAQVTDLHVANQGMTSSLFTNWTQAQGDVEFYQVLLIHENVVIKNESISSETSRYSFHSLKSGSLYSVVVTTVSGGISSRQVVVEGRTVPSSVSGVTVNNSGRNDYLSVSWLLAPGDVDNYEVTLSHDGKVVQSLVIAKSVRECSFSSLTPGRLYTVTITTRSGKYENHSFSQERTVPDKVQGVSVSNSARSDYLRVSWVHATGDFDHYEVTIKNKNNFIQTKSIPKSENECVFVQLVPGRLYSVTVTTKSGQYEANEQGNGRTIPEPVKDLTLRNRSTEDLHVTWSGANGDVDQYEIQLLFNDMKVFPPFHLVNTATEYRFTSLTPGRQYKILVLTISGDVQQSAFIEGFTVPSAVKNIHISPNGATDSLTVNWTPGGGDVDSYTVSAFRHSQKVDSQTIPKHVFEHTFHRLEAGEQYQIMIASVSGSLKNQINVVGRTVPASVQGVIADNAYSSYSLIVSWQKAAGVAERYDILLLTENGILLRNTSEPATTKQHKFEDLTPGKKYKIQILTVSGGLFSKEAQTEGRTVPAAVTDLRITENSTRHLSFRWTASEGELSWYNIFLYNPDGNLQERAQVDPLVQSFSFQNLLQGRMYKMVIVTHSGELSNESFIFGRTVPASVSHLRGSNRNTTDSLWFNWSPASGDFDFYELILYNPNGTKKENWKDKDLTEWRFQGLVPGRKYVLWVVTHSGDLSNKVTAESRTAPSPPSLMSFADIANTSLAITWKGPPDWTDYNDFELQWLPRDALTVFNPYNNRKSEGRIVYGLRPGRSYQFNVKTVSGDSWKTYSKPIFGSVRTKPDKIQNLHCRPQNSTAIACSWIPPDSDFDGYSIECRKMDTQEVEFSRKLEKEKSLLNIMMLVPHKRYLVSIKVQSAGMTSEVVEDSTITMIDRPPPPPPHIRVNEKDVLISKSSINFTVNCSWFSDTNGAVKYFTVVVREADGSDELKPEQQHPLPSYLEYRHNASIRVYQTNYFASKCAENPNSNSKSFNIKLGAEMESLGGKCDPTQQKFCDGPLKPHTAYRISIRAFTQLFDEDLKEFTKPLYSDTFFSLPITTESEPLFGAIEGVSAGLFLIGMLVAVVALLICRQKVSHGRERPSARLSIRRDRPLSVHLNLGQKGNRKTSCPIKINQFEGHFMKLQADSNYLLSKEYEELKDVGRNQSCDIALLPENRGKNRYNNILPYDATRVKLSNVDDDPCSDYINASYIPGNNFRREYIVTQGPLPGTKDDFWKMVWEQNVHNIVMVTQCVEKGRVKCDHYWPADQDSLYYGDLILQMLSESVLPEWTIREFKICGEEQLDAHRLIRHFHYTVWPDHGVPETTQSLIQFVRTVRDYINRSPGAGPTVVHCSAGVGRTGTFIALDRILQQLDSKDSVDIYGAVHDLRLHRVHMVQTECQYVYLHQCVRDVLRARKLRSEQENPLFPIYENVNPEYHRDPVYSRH
T3 sequence (Q16539 whole entry): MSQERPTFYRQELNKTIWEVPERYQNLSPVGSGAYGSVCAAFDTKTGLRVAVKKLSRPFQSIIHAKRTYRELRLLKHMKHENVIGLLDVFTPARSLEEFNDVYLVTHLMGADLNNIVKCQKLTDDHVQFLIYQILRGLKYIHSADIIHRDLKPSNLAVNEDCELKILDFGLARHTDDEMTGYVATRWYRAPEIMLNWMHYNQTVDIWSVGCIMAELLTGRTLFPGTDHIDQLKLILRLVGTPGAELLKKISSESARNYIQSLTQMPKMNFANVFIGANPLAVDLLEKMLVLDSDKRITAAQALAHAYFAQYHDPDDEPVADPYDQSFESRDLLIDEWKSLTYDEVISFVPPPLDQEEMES
LMPTP-B, sequence (P24666 1-158 isoform P24666-2): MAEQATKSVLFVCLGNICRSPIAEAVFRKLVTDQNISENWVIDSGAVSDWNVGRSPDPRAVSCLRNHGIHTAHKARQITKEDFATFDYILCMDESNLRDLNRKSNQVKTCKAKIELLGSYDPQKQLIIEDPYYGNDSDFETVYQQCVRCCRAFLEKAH
DUSP13 (TMDP), sequence (Q9UII6 whole entry): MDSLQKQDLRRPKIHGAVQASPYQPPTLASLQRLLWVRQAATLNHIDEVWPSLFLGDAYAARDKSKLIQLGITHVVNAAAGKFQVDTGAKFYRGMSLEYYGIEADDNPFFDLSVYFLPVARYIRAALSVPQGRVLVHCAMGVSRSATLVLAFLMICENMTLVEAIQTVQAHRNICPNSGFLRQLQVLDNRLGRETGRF

Turning to `O=c1[nH]c(=O)c2cc(-c3ccccc3)sc2[nH]1` [JMS-038], the IC50 with SKOV3, in the experiment with IMR90 fibroblasts, in the experiment with A2780, in the experiment on SKOV3IP1, with HEYA8 and in the experiment with OVCAR4 was > 50 µM each time. The IC50 in the experiment on SKOV3TRIP2, with A2780CP20, in the experiment on HEYA8-MDR, in the experiment on OvCa cell line spheroids, in the experiment with OVCAR4 spheroids and in the experiment on SKOV3TRIP2 spheroids was > 50 µM throughout. For the same molecule, the IC50 in the experiment with A2780 spheroids is > 50 µM; in the experiment on COV362 spheroids, > 50 µM; in [2], > 25 µM; in the experiment on SKOV3 spheroids it was > 50 µM; with A2780CP20 spheroids, > 50 µM; in the experiment on SKOV3IP1 spheroids, > 50 µM. Moreover, the IC50 with HeyA8-MDR spheroids was > 50 µM; at PTP4A3 protein [3] it was > 100 µM; with OvCa cell lines it was > 50 µM; with HeyA8 spheroids (Homo sapiens, HEY A8, 48 h, Mean ± SD, N=3) it was > 50 µM. For the same molecule, the “∆Tm of PTP4A3 (destabilizing thermal shift)” value at PTP4A3 protein [1] is “no significant thermal shift; also recorded: no effect”. Further, in the experiment with HeyA8 spheroids (images 48 h after plating and 24 h after compound addition), the “HeyA8 cell spheroid growth (images)” value is reported as “but not JMS-038 inhibited HeyA8 cell spheroid growth”. For the same molecule, the “effect on RhoA activation compared to DMSO vehicle control” value in experiment [4] is “no significant effect”. In addition, the “migration of HeyA8 cells after wounding” value in the experiment with HeyA8 cells is given as “but not JMS-038 blocked the migration”.
With `N=C1C(=O)NC(=O)c2cc(-c3ccccc3)sc21` [JMS-053], the activity at 1 µM on PTPRB (PTPβ) came to 95 ± 5%; at LMPTP-B, 99%; at PTPN7 (HePTP) it was 97 ± 3%; on Lambda PP (Phage), 72 ± 3%; at DUSP13 (TMDP) it was 95 ± 1%; on PTP4A1 (1 µM, in-house assay, N=2, read-out: % Activity (Mean ± SD) PTP4A1) it was 1%. For the same molecule, the “TEER after LPS, pretreatment” value in experiment [5] (5 µM, 24 h prior to LPS 0.5 EU/mL) is “prevented LPS-induced disruption of the endothelial barrier function”. Besides, in experiment [5] (treatment 3 h after LPS exposure), the “TEER after LPS, post-treatment” value is on record as “no observed mitigation”. Further, the “LPS-mediated reduction in Rac1 activation” value in experiment [6] is on record as “blocked”. Further, the “inhibition of p38α” value on p38α is ~50%. In addition, the “LPS-mediated RhoA activation” value in [7] is recorded as “blocked”. Besides, at PTP4A1, the IC50 was 0.05 ± 0.014 µM. Besides, the “TEER after VEGF, pretreatment” value in experiment [8] (2 h before VEGF 100 ng/mL then continuous exposure) was “normalized”. Moreover, in experiment [8] (3 h after VEGF 100 ng/mL), the “TEER after VEGF, post-treatment” value was “normalized endothelial barrier function”.
For the molecule `Nc1c[nH]c(=O)c2cc(-c3ccccc3)sc12` [thienopyridone, reference compound], the IC50 is 28.8 ± 2.2 µM with SKOV3; 4.5 ± 0.6 µM in the experiment on A2780; 31.3 ± 8.5 µM in the experiment on SKOV3IP1; 47 ± 4.9 µM in the experiment on HEYA8; 15.5 ± 2.4 µM with OVCAR4; > 50 µM in the experiment with SKOV3TRIP2. For the same molecule, the IC50 in the experiment on A2780CP20 was 13.1 ± 6 µM; in the experiment on HEYA8-MDR, > 50 µM.
